Series [1] concerns the target T1, hERG potassium channel (Homo sapiens, UniProt Q12809).
T1 construct: expressed in transfected cells; host or cells: HEK-293 cells, BacMam viral expression system
Nature of the series: hERG whole cell patch clamp, tail current inhibition in HEK-293 cells. The class given is cell-based. The note with it: tail current at −40 mV, room temperature; for inhibition at 3 µM: human, pH 7.4, 3 μM, read-out: hERG Inhibition, % inhib. @ 3 μM. As for the experimental part:
The comparison was carried out as follows. The hERG potassium channels were transiently expressed in HEK-293 cells using the Bacmam viral expression system (Kost et al, 2000: Pfohl et al, 2001). The HEK-293 cells were maintained in cell media comprised of D-MEM/F12, 10% fetal bovine serum, penicillin G sodium 100 units/mL, and streptomycin sulfate 100 μg/mL. Cells were grown to confluency in flasks and were rinsed once with PBS prior to passage. The flasks were incubated with VERSENE (EDTA) 1:5000 for 5 minutes at 37° C. to detach the cells from the flasks. Cells used in electrophysiology experiments were plated on glass coverslips and transfected 24 to 72 hours prior to use.
hERG channels were studied using the whole cell mode of the patch clamp technique (Hamill et al., 1981). The pipette solution contained 145 mM K+Aspartate, 11 mM EGTA, 5 mM NaCl, 5 mM MgATP, 5 mM HEPES, pH 7.4, and the bath solution contained 145 mM NaCl, 4 mM KCl, 2 mM CaCl2, 1 mM MgCl2, 10 mM HEPES, 10 mM d-glucose pH 7.4. To measure drug effects, the cells were held at −80 mV, then stepped to +20 mV for 400 ms followed by a second pulse to −40 mV so that the outward tail current characteristic of hERG could be measured. […] This pulse protocol was repeated at ten-second intervals during the superfusion of the test article diluted in the bath solution. The inhibition of hERG was determined by measuring the peak amplitude of the tail currents at −40 mV before and after compound application. The half-maximal inhibitory concentration (IC50) was determined from a curve fit of Hill equation to the data points. […] All experiments were conducted at room temperature (approximately 25° C.).
A general note: The hERG channel carries a current that helps repolarise heart muscle cells.

Series [2] deals with T2, MCH R1 (Homo sapiens, UniProt Q99705).
T2 construct: expressed in transfected cells; host or cells: CHO cells stably expressing elkgal4-luc+ reporter gene (CHO-K1, ATCC)
T2 sequence (Q99705 whole entry, the tested form may be a part): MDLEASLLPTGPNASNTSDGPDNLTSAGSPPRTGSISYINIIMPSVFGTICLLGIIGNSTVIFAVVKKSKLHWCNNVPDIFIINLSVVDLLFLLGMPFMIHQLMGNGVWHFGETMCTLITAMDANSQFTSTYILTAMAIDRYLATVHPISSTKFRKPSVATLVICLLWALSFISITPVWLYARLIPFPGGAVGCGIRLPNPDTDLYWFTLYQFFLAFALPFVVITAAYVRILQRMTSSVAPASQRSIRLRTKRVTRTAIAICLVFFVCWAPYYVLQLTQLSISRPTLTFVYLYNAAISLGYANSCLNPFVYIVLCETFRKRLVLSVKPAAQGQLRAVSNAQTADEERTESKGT
Nature of the series: functional antagonist assay of MCH R1 (elkgal4-luc+ reporter gene, CHO cells, inhibition of MCH EC80 response). Particulars: MCH1R-elkgal4-luc+ CHO cells, read-out: MCH R1 pIC50 (converted). It counts as cell-based. An excerpt:
The activity of the compounds used in this invention may be assessed in a functional assay of MCH R1 as follows:
Black, 96-well, tissue culture-treated plates (#3904) were obtained from Corning Costar, (Cambridge, Mass.), LucPlus™ Luciferase Reporter Gene Assay Kit (# 6016969) was from Packard (Meriden, Conn.), plate seals (#097-05-00006) were from Beckman/Sagian (Fullerton, Calif.). DMEM/F12 medium (#11039-021), fetal bovine serum (# 16140-071), L-glutamine (#25030-081), 0.05% trypsin (# 25300-054), G418 (#10131-035) and dPBS (#4190-144) were obtained from Gibco BRL (Gaithersburg, Md.). […]
CHO cells, stably expressing an elkgal4-luc^+ reporter gene (host) were transfected by electroporation with the human melanin-concentrating hormone one receptor. […] Plates were sealed and subjected to dark adaptation at room temperature for 10 minutes before luciferase activity was quantitated on a TopCount™ microplate scintillation counter (Packard) using 3 seconds/well count time. The ability of the antagonist to inhibit the MCH EC80 response was quantified by non-linear regression analysis using a curve-fitting program based in Microsoft ExCel. Specificity of the MCH R1 response was determined using the same protocol by measuring the ability of said antagonists to inhibit an EC80 thrombin response (endogenous) in the host cells.
A general note: Reporter assays use an easily measured gene product as a stand-in for the process of interest.

pIC50: −log10 of the molar value.

T1 sequence (Q12809 whole entry): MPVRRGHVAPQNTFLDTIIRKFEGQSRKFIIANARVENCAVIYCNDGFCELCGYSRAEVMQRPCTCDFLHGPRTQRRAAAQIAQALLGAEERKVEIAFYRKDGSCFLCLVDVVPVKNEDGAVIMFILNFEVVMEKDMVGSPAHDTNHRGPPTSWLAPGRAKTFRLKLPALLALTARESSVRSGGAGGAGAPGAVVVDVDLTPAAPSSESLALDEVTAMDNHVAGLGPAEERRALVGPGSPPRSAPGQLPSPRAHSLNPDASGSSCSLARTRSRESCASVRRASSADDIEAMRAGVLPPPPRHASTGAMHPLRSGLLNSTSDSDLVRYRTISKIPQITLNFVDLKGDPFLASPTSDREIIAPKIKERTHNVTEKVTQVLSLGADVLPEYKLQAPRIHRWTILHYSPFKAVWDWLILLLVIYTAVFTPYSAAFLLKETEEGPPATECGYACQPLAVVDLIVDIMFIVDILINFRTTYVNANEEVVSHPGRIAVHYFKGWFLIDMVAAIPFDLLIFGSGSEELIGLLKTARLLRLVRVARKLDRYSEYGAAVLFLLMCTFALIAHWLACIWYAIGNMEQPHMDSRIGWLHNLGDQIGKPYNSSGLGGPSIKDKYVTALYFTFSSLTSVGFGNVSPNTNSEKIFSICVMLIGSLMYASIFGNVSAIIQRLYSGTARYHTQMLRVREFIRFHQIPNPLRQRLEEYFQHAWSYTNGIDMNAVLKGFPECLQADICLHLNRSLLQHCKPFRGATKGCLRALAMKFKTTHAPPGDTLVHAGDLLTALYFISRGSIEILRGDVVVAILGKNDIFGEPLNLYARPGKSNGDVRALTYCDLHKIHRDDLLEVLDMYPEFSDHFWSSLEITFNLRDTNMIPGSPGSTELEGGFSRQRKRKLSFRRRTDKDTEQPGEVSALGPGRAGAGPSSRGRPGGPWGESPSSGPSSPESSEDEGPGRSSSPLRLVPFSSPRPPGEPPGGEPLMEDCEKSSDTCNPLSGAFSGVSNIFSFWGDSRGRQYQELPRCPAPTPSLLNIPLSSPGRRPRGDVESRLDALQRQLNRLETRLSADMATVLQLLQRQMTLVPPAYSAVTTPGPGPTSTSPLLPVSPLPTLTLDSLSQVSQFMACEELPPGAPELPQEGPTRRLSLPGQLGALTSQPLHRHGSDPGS

For orientation: inhibition means the drop in the measured response relative to a control, in per cent. One may read the pIC50 as −log10 of the IC50, conventionally taken in molar units. On to `COc1cc(-n2cnc3cc(-c4ccc(Cl)cc4)sc3c2=O)ccc1OCCN1CC[C@H](O)C1` [Comparison Example 1], for which, in series [1], the inhibition at 3 µM was 62% and the pIC50 is 5.70.

Consider `COc1cc(-n2cnc3cc(-c4ccc(Cl)cc4)sc3c2=O)ccc1OCCN1CC[C@@H](O)C1` [Comparison Example 2], for which the inhibition at 3 µM in series [1] is 90%.

As for `COc1cc(-n2cnc3cc(-c4ccc(Cl)cc4)sc3c2=O)ccc1OCCCN1CC[C@@H](O)C1` [Comparison Example 3], in series [1], the inhibition at 3 µM turned out to be 84%.

For the compound `COc1cc(-n2cnc3cc(-c4ccc(Cl)cc4)sc3c2=O)ccc1N1CC[C@@H](O)C1` [Example 1, 6-(4-chlorophenyl)-3-{4-[(3R)-3-hydroxypyrrolidin-1-yl]-3-methoxyphenyl}thieno[3,2-d]pyrimidin-4(3H)-one], the IC50 in series [2] is 2.51 nM.

On to `COc1cc(-n2cnc3cc(-c4ccc(Cl)cc4)sc3c2=O)ccc1N1CC[C@H](O)C1` [Example 4, 6-(4-chlorophenyl)-3-{4-[(3S)-3-hydroxypyrrolidin-1-yl]-3-methoxyphenyl}thieno[3,2-d]pyrimidin-4(3H)-one], for which, in series [2], the IC50 was 2 nM.
